Measurements published in ChEMBL document CHEMBL1921747, “Novel cytotoxic chalcones from Litsea rubescens and Litsea pedunculata” (Bioorg Med Chem Lett, 2011).
≈ marks a conversion by molar mass, not a printed value.

Experiments:
[1] = test system: HL-60; assay: Cytotoxicity against human HL60 cells after 48 hrs by MTT assay; type: functional, cell-based; conditions: HL-60, 48 h
[2] = test system: A-431; assay: Cytotoxicity against human A431 cells after 48 hrs by MTT assay; type: functional, cell-based; conditions: A-431, 48 h
[3] = test system: HepG2; assay: Cytotoxicity against human HepG2 cells after 48 hrs by MTT assay; type: functional, cell-based; conditions: HepG2, 48 h
[4] = test system: HL-60; assay: Ratio of cisplatin IC50 to compound IC50 for human HL60 cells; type: functional

| Structure (SMILES) | IC50 [1] [µg/mL] | IC50 [2] [µg/mL] | IC50 [3] [µg/mL] | Ratio IC50 [4] |
| --- | --- | --- | --- | --- |
| COC1=CC(=O)C2(OC2C)C(O)=C1C(=O)/C=C/c1ccccc1 (configuration not stated) [LITSEAONE A] | 6.1 (≈ 19.5 µM) | 11.1 (≈ 35.5 µM) | 23 (≈ 73.6 µM) | 2.1 |
| COc1cc(O)c(C(=O)/C=C/c2ccccc2)c2c1OC(C)O2 (configuration not stated) [LITSEAONE B] | 10.2 (≈ 32.7 µM) | 13.9 (≈ 44.5 µM) | 21.5 (≈ 68.8 µM) |  |
